Here are results for five molecules from US10899737B2, “Piperazine carbamates and methods of making and using same” (Lundbeck La Jolla Research Center, Inc., priority 2016, dated 2021).

The target of assay [1] is T1, ABHD6 (Mus musculus, UniProt Q8R2Y0).
T1 construct: Proteomes (mouse brain membrane fraction or cell lysates); from tissue; host or cells: mouse brain membrane fraction or cell lysates
T1 sequence (Q8R2Y0 1-336): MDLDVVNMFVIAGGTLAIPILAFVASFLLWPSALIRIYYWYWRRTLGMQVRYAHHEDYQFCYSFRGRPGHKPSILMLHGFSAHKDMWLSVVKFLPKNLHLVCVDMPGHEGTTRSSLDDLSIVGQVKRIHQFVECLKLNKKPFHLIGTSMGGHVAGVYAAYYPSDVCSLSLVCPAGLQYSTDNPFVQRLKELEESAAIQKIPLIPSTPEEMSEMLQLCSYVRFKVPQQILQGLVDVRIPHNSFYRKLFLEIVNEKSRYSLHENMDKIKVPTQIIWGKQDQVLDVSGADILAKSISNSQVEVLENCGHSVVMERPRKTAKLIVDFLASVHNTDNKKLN
Put plainly: In vitro competitive activity-based protein profiling (mouse), ABHD6. As to conditions: 1 μM inhibitor, mouse brain membrane fraction or cell lysates; read-out: ABHD6 % inh. 1 μM (mouse). Type of assay: biochemical. The essentials:
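Mouse brain membrane proteome or cell lysate (1.0 mg/mL protein) preincubated 30 min at 37 °C with inhibitor, then labelled 30 min at 37 °C with FP-rhodamine probe. Remaining MAGL and ABHD6 activity quantified by in-gel fluorescence band intensity after SDS-PAGE; values are % inhibition at 1 μM.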

In assay [2] the target is T2, MAGL (Mus musculus, UniProt O35678).
T2 construct: Proteomes (mouse brain membrane fraction or cell lysates); from tissue; host or cells: mouse brain membrane fraction or cell lysates
T2 sequence (O35678 1-303): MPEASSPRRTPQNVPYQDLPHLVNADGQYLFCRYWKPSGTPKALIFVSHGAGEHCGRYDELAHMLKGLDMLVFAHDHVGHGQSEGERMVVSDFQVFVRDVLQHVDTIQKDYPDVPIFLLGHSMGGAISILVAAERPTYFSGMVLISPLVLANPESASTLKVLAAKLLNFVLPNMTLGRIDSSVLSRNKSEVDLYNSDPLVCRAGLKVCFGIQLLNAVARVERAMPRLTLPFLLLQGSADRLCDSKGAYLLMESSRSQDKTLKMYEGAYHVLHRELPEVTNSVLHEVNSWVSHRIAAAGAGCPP
Put plainly: Mouse brain proteomes from inhibitor treated mice, MAGL inhibition. It counts as in vivo. As to conditions: 5 mg/kg oral gavage, C57Bl/6J mouse brain, 4 h following administration; read-out: MAGL % inh. 5 mg/kg (mouse). As for the experimental part: Preparation of Mouse Brain Proteomes from Inhibitor Treated Mice.
Inhibitors were administered to wild-type C57Bl/6J by oral gavage in a vehicle of polyethylene glycol. Each animal was sacrificed 4 h following administration and brain proteomes were prepared and analyzed according to previously established methods (See Niphakis, M. J., et al. (2011) ACS Chem. Neurosci. and Long, J. Z., et al. Nat. Chem. Biol. 5:37-44).

For assay [3], the target named is T3, MAGL (Homo sapiens, UniProt Q99685).
T3 construct: Proteomes (human prefrontal cortex or cell membrane fractions); from tissue
T3 sequence (Q99685 1-303): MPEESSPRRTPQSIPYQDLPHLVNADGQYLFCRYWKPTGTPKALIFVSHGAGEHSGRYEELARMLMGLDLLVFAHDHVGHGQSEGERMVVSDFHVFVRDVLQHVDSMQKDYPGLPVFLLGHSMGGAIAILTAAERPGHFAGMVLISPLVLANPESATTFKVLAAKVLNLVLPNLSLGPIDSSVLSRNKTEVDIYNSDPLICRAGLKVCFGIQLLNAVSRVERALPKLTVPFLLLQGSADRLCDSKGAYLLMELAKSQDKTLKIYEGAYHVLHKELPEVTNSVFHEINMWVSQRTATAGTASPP
Put plainly: In vitro competitive activity-based protein profiling (human), MAGL. Type of assay: biochemical. As to conditions: for inhibition at 1 µM: 1 μM inhibitor, human proteome, 30 min preincubation at 37° C, read-out: MAGL % inh. 1 μM (human); for IC50: human PC3. In outline:
(§1)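 Human prefrontal cortex or cell membrane proteomes (1.0-2.0 mg/mL protein) preincubated 30 min at 37° C with inhibitor, then labeled 30 min RT with FP-Rh or JW912 probe. After SDS-PAGE, activity taken from fluorescent band intensity for each enzyme.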

Assay [4] concerns the target T4, ABHD6 (Homo sapiens, UniProt Q9BV23).
T4 construct: Proteomes (human prefrontal cortex or cell membrane fractions); endogenous in cells; human prefrontal cortex
T4 sequence (Q9BV23 1-337): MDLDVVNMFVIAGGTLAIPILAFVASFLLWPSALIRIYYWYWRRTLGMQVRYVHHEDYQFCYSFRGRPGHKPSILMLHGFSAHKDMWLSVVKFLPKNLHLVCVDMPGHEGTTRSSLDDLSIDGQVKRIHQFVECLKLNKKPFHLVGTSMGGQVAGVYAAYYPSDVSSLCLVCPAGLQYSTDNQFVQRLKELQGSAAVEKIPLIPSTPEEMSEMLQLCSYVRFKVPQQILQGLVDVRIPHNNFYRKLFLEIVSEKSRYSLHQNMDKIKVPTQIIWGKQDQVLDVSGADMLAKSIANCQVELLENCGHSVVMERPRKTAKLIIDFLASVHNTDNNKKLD
The assay is described as follows: In vitro competitive activity-based protein profiling (human), ABHD6. It counts as biochemical. As to conditions: human PC3. In outline:
as §1

In assay [5] the target is T2, MAGL. The assay is described as follows: In vitro competitive activity-based protein profiling (mouse), MAGL. Type of assay: biochemical. The following applies: for inhibition at 1 µM: 1 μM inhibitor, mouse brain membrane fraction or cell lysates, read-out: MAGL % inh. 1 μM (mouse). The essentials: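 Mouse brain membrane fraction or cell lysate proteomes (50 μL, 1.0 mg/mL total protein) were preincubated with inhibitors at varying concentrations for 30 min at 37° C. FP-Rh (1.0 μL, 50 μM in DMSO) was then added for a further 30 min at 37° C. Samples were quenched with 4× SDS loading buffer and resolved by SDS-PAGE. MAGL activity was quantified from fluorescent gel band intensity using ImageJ 1.49 k.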

As usually defined, the IC50 is the concentration needed to halve the response being measured. Lower therefore signals greater potency in that assay. Consider `O=C(O)[C@@H]1CC(c2cc(C(F)(F)F)ccc2CN2CCN(C(=O)OC(C(F)(F)F)C(F)(F)F)CC2)CN1` (stereo partly drawn) [Example 7, (2S)-4-(2-((4-(((1,1,1,3,3,3-Hexafluoropropan-2-yl)oxy)carbonyl)piperazin-1-yl)methyl)-5-(trifluoromethyl)phenyl)pyrrolidine-2-carboxylic Acid], for which the inhibition at 1 µM at ABHD6 [1] was 25 to 50%; at MAGL [3] it was not below 75%; on MAGL [5] it was not below 75%. In addition, the inhibition at 5 mg/kg at MAGL [2] lay within 25 to 50%. In addition, the IC50 is not above 0.1 µM on MAGL [3] and 1 to 10 µM at ABHD6 [4].

Regarding `O=C(O)C1CCN(c2cc(S(F)(F)(F)(F)F)ccc2CN2CCN(C(=O)OC(C(F)(F)F)C(F)(F)F)CC2)CC1` [Example 78, 1-(2-((4-(((1,1,1,3,3,3-hexafluoropropan-2-yl)oxy)carbonyl)piperazin-1-yl)methyl)-5-(pentafluoro-16-sulfaneyl)phenyl)piperidine-4-carboxylic acid], the inhibition at 1 µM on ABHD6 [1], on MAGL [3] and on MAGL [5] was not below 75% in each case. The inhibition at 5 mg/kg on MAGL [2] is not below 75%. Also, the figures for the 50% inhibitory concentration (IC50) at MAGL [3] and at ABHD6 [4] were not above 0.1 µM and 1 to 10 µM, respectively.

In the case of `CC1(C(=O)O)CN(c2cc(C(F)(F)F)ccc2CN2CCN(C(=O)OC(C(F)(F)F)C(F)(F)F)CC2)CCO1` (stereo not drawn) [Example 57, 4-{2-[(4-{[(1,1,1,3,3,3-hexafluoropropan-2-yl)oxy]carbonyl}piperazin-1-yl)methyl]-5-(trifluoromethyl)phenyl}-2-methylmorpholine-2-carboxylic acid], the inhibition at 1 µM at ABHD6 [1] is 0 to 25%; at MAGL [3] it was not below 75%; at MAGL [5] it was not below 75%. The inhibition at 5 mg/kg at MAGL [2] is 0 to 25%. Besides, the figures for the IC50 at MAGL [3], on ABHD6 [4] and on MAGL [5] (mouse proteome) were not above 0.1 µM, 1 to 10 µM and not above 0.1 µM, respectively.

Consider `O=C(OC(C(F)(F)F)C(F)(F)F)N1CCN(Cc2cccc(Cl)c2C2(C(=O)O)CCCC2)CC1` [Example 44, 1-(2-chloro-6-((4-(((1,1,1,3,3,3-hexafluoropropan-2-yl)oxy)carbonyl)piperazin1-yl)methyl)phenyl)cyclopentane-1-carboxylic acid], for which the inhibition at 1 µM on ABHD6 [1] was 50 to 75%; at MAGL [5], not below 75%. Further, the inhibition at 5 mg/kg at MAGL [2] was not below 75%. Besides, the IC50 at MAGL [3] was not above 0.1 µM; at ABHD6 [4], 1 to 10 µM.

Regarding `O=C(O)Cn1ccc(-c2cc(F)ccc2CN2CCN(C(=O)OC(C(F)(F)F)C(F)(F)F)CC2)n1` [Example 13, 2-(3-(5-Fluoro-2-((4-(((1,1,1,3,3,3-hexafluoropropan-2-yl)oxy)carbonyl)piperazin-1-yl)methyl)phenyl)-1H-pyrazol-1-yl)acetic Acid], the inhibition at 1 µM at ABHD6 [1] was 0 to 25%; at MAGL [3], not below 75%; on MAGL [5], not below 75%. In addition, the inhibition at 5 mg/kg on MAGL [2] was 0 to 25%. Also, the IC50 was not above 0.1 µM on MAGL [3] and 1 to 10 µM at ABHD6 [4].
